BindingDB's records for doi:10.1021/jm980551o (Novartis, 1999)

Test: Inhibition of EGF-dependent mouse keratinocyte MK cell proliferation

IC50: < 100 nM
SMILES: COc1cc2ncnc(Nc3cccc(Cl)c3)c2cc1OC
